Where two headings read alike, the source gives them in different places.
Key:
MSTO-211H cells = experiment: Cell proliferation inhibition experiment (CellTiter-Glo); type: cell-based; conditions: 96 hours, read-out: Inhibitory activity of each compound on the proliferation of MSTO-211H cells (grades of IC50 values)
Procedure: In this example, the intracellular ATP was quantitatively determined by the CellTiter-Glo luminescence cell viability detection kit to detect the number of living cells in the culture.
Step 1: MSTO-211H (ATCC, CRL-2081TM) or NCI-H2052 (ATCC, CRL-5915TM) cells were inoculated in a 96-well plate at a density of 1500 cells per well with a volume of 100 μL per well, and the cells were incubated overnight in a 37° C., 5% carbon dioxide incubator. The culture medium used was RPMI1640 medium (GIBCO-A10491-01)+10% FBS (GIBCO-10099141C)+1% penicillin/streptomycin (Pen/Strep) (GIBCO-15070-063).
Step 2: The cells were treated with the compounds to be tested. The compounds to be tested were 3-fold diluted, and a total of 9 concentration gradients were set up; a certain volume of DMSO or the compounds to be tested was added to each well, respectively, and 2 replicates were set up for each concentration, and the final concentration of DMSO was controlled to be no higher than 0.5%. The cells were incubated for 96 hours in a 37° C., 5% carbon dioxide incubator.
Step 3: Cell viability was detected in the control group and treatment group using CellTiter-Glo Luminescent Cell Viability Assay kit (Promega, G7570). 50 μL of CellTiter-Glo was added to each well, mixed well, and incubated at room temperature for 10 minutes. The signal was read using En Vision® Multilabel Plate Reader (Perkin Elmer).
The inhibition percentage (%) was calculated using the following formula: […]
Using Graphpad Prism software, the IC50 values of the compounds inhibiting the CTG signal of cell proliferation activity was calculated.

[1] = target: YAP-TEAD protein interaction (His-TEAD1 (209-426) protein, Bio-YAP peptide (60-100)) (Homo sapiens, UniProt P28347); experiment: YAP-TEAD protein interaction HTRF experiment; type: binding; conditions: His-TEAD1 (209-426) 10 nM, Bio-YAP peptide 50 nM, read-out: Activity of each compound in blocking YAP-TEAD protein interaction (grades of IC50 values)
YAP-TEAD protein interaction (His-TEAD1 (209-426) protein, Bio-YAP peptide (60-100)), sequence (P28347 209-426): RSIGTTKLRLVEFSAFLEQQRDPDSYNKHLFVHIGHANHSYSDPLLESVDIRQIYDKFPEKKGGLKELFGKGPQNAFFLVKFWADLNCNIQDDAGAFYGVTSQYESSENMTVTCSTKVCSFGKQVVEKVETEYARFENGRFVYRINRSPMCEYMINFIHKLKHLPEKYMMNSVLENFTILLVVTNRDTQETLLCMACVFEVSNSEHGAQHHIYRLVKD
In short: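 His-TEAD1 (209-426) at 10 nM final was preincubated 20 min at RT with compounds (10-point 3-fold dilutions, duplicates, 1% DMSO), then Bio-YAP peptide, 10 min. Anti-His-Eu cryptate/streptavidin-XL665 added for 1 h at RT; HTRF read at ex 320 nm, Em665/Em620 ratio ×10000, IC50 from % inhibition.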

Structure (SMILES)	IC50 [1] [nM]	IC50 (MSTO-211H cells; Homo sapiens) [nM]	IC50 (MSTO-211H cells) [nM]
NC(=O)c1cc2c(c(F)c1-c1c(Cl)c(F)cc3c1C[C@](c1ccccc1)([C@@H]1CCCN1)O3)Oc1c(cnn(C3CC3)c1=O)O2 [Compound 111, (S)-8-((S)-5-Chloro-6-fluoro-2-phenyl-2-((S)-pyrrolidin-2-yl)-2,3-dihydrobenzofuran-4-yl)-2-cyclopropyl-9-fluoro-1-oxo-1,2-dihydrobenzo[5,6][1,4]dioxo[2,3-d]pyridazine-7-carboxamide]	< 50		< 200
O=C(NC1CC1)c1cc2c(c(F)c1-c1c(Cl)c(F)cc3c1C[C@](c1ccccc1)([C@@H]1CCCN1)O3)Oc1c(cnn(CC(F)F)c1=O)O2 (atropisomer, axis not shown) [Compound 160]	< 50	< 200	
NC(=O)c1cc2c(c(F)c1-c1c(Cl)c(F)cc3c1C[C@](c1ccccc1)([C@@H]1CCCN1)O3)Oc1c(ncn(C3CC3)c1=O)O2 (atropisomer, axis not shown) [Compound 139, (S)-7-((S)-5-Chloro-6-fluoro-2-phenyl-2-((S)-pyrrolidin-2-yl)-2,3-dihydrobenzofuran-4-yl)-3-cyclopropyl-6-fluoro-4-oxo-3,4-dihydrobenzo [5,6][1,4]dioxo [2,3-d]pyrimidine-8-carboxamide]	< 50	< 200	
[2H]c1c([2H])c([2H])c([C@]2([C@@H]3CCCN3)Cc3c(cc(F)c(Cl)c3-c3c(C(N)=O)cc4c(c3F)OCc3nn(C)cc3-4)O2)c([2H])c1[2H] (atropisomer, axis not shown) [Compound 116, (S)-7-((S)-5-Chloro-6-fluoro-2-(phenyl-d5)-2-((S)-pyrrolidin-2-yl)-2,3-dihydrobenzofuran-4-yl)-6-fluoro-2-methyl-2,4-dihydrochromeno[3,4-c]pyrazole-8-carboxamide]	< 50	< 200	
NC(=O)c1cc2c(c(F)c1-c1c(Cl)c(F)cc3c1C[C@](c1ccccc1)([C@@H]1CCCN1)O3)Oc1ccnnc1O2 [Compound 103, (S)-7-((S)-5-Chloro-6-fluoro-2-phenyl-2-((S)-pyrrolidin-2-yl)-2,3-dihydrobenzofuran-4-yl)-6-fluorobenzo[5,6][1,4]dioxo[2,3-c]pyridazine-8-carboxamide]	< 50		500 to 5000
CNC(=O)c1cc2c(c(F)c1-c1c(Cl)c(F)cc3c1C[C@](c1ccccc1)([C@@H]1CCCN1)O3)OCc1nn(C)cc1-2 (atropisomer, axis not shown) [Compound 39, (S)-7-((S)-5-Chloro-6-fluoro-2-phenyl-2-((S)-pyrrolidin-2-yl)-2,3-dihydrobenzofuran-4-yl)-6-fluoro-N,2-dimethyl-2,4-dihydrochromeno[3,4-c]pyrazole-8-carboxamide]	< 50	< 200	
NC(=O)c1cc2c(c(F)c1-c1c(Cl)c(F)cc3c1C[C@](c1ccccc1)([C@@H]1CCCN1)O3)Oc1c(cnn(CCF)c1=O)O2 (atropisomer, axis not shown) [Compound 118, (S)-8-((S)-5-Chloro-6-fluoro-2-phenyl-2-((S)-pyrrolidin-2-yl)-2,3-dihydrobenzofuran-4-yl)-9-fluoro-2-(2-fluoroethyl)-1-oxo-1,2-dihydrobenzo[5,6][1,4]dioxo[2,3-d]pyridazine-7-carboxamide]	< 50	< 200	
Cn1cc2c(n1)COc1c-2cc(C(N)=O)c(-c2c(Cl)c(F)cc3c2C[C@@](CN[C@H]2CC[C@H](O)CC2)(c2ccccc2)O3)c1F (atropisomer, axis not shown) [Compound 81]	< 50	< 200	
NC(=O)c1cc2c(c(F)c1-c1c(Cl)c(F)cc3c1C[C@](c1ccccc1)([C@@H]1CCCN1)O3)Oc1nccnc1O2 (atropisomer, axis not shown) [Compound 10, (S)-8-((S)-5-Chloro-6-fluoro-2-phenyl-2-((S)-pyrrolidin-2-yl)-2,3-dihydrobenzofuran-4-yl)-9-fluorobenzo[5,6][1,4]dioxino[2,3-b]pyrazine-7-carboxamide]	< 50	< 200	
[2H]C1([2H])CC[C@]([2H])([C@@]2(c3ccccc3)Cc3c(cc(F)c(Cl)c3-c3c(C(N)=O)cc4c(c3F)Oc3c(cnn(CC(F)(F)F)c3=O)O4)O2)N1 (atropisomer, axis not shown) [Compound 153, (S)-8-((S)-5-Chloro-6-fluoro-2-phenyl-2-((S)-pyrrolidin-2-yl-2,5,5-d3)-2,3-dihydrobenzofuran-4-yl)-9-fluoro-1-oxo-2-(2,2,2-trifluoroethyl)-1,2-dihydroxybenzo[5,6][1,4] dioxo [2,3-d]pyridazine-7-carboxamide]	< 50	< 200	
NC(=O)c1cc2c(c(F)c1-c1c(Cl)c(F)cc3c1C[C@](c1ccccc1)([C@@H]1CCCN1)O3)Oc1c(N)ncnc1O2 (atropisomer, axis not shown) [Compound 114, (S)-4-Amino-7-((S)-5-chloro-6-fluoro-2-phenyl-2-((S)-pyrrolidin-2-yl)-2,3-dihydrobenzofuran-4-yl)-6-fluorobenzo[5,6][1,4]dioxo [2,3-d]pyrimidine-8-carboxamide]	< 50	500 to 5000	

The next lines start with results.

IC50 [1] [nM]	Structure (SMILES)	IC50 (MSTO-211H cells; Homo sapiens) [nM]	IC50 (MSTO-211H cells) [nM]
< 50	[2H]C([2H])([2H])n1ncc2c(c1=O)Oc1cc(C(N)=O)c(-c3c(Cl)c(F)cc4c3C[C@](c3ccccc3)([C@@H]3CCCN3)O4)c(F)c1O2 (atropisomer, axis not shown) [Compound 132, (S)-8-((S)-5-Chloro-6-fluoro-2-phenyl-2-((S)-pyrrolidin-2-yl)-2,3-dihydrobenzofuran-4-yl)-9-fluoro-3-(methyl-d3)-4-oxo-3,4-dihydrobenzo[5,6][1,4]dioxo[2,3-d]pyridazine-7-carboxamide]	< 200	
< 50	[2H]C1([2H])CC[C@]([2H])([C@@]2(c3ccccc3)Cc3c(cc(F)c(Cl)c3-c3c(C(N)=O)cc4c(c3F)Oc3c(cnn(C5CC(F)(F)C5)c3=O)O4)O2)N1 (atropisomer, axis not shown) [Compound 154, (S)-8-((S)-5-Chloro-6-fluoro-2-phenyl-2-((S)-pyrrolidin-2-yl-2,5,5-d3)-2,3-dihydrobenzofuran-4-yl)-2-(3,3-difluorocyclobutyl)-9-fluoro-1-oxo-1,2-dihydrobenzo[5,6][1,4]dioxo [2,3-d]pyridazine-7-carboxamide]	< 200	
< 50	CNC[C@@]1(c2ccccc2)Cc2c(cc(F)c(Cl)c2-c2c(C(N)=O)cc3c(c2F)OCc2nn(C)cc2-3)O1 (atropisomer, axis not shown) [Compound 41, (S)-7-((S)-5-Chloro-6-fluoro-2-((methylamino)methyl)-2-phenyl-2,3-dihydrobenzofuran-4-yl)-6-fluoro-2-methyl-2,4-dihydrochromeno[3,4-c]pyrazole-8-carboxamide]	< 200	
< 50	Cn1nc2c(cc1=O)Oc1cc(C(N)=O)c(-c3c(Cl)c(F)cc4c3C[C@](c3ccccc3)([C@@H]3CCCN3)O4)c(F)c1O2 (atropisomer, axis not shown) [Compound 122, (S)-8-((S)-5-Chloro-6-fluoro-2-phenyl-2-((S)-pyrrolidin-2-yl)-2,3-dihydrobenzofuran-4-yl)-9-fluoro-2-methyl-3-oxo-2,3-trihydrobenzo [5,6][1,4]dioxo [2,3-c]pyridazine-7-carboxamide]	< 200	
< 50	NC(=O)c1cc2c(c(F)c1-c1c(Cl)c(F)cc3c1C[C@](c1ccccc1)([C@@H]1CCCN1)O3)Oc1ncn(C3CC3)c(=O)c1O2 (atropisomer, axis not shown) [Compound 140]	< 200	
< 50	NC(=O)c1cc2c(c(F)c1-c1c(Cl)c(F)cc3c1C[C@](c1ccccc1)([C@@H]1CCCN1)O3)OCC1(CC1)O2 (atropisomer, axis not shown) [Compound 5, (S)-6-((S)-5-Chloro-6-fluoro-2-phenyl-2-((S)-pyrrolidin-2-yl)-2,3-dihydrobenzofuran-4-yl)-5-fluoro-3H-spiro[benzo[b][1,4]dioxoine-2, l'-cyclopropane]-7-carboxamide]	< 200	
< 50	CCn1cc2c(n1)COc1c-2cc(C(N)=O)c(-c2c(Cl)c(F)cc3c2C[C@](c2ccccc2)([C@@H]2CCCN2)O3)c1F (atropisomer, axis not shown) [Compound 62, (S)-7-((S)-5-Chloro-6-fluoro-2-phenyl-2-((S)-pyrrolidin-2-yl)-2,3-dihydrobenzofuran-4-yl)-2-ethyl-6-fluoro-2,4-dihydrochromeno[3,4-c]pyrazole-8-carboxamide]	< 200	
